Data from PubChem BioAssay AID256 (DTP/NCI, 2004).
Several values for one entry are separate records, joined by “and”; a condition that tells them apart may be missing. Identical values can stand only once. Toxic doses and inconclusive results are not listed. Rule for the calls: active = survival T/C of 150% or more; inactive = T/C below 125% in these data.

System: CD2F1 mice, L1210 leukemia ip, survival T/C
Assay: NCI In Vivo Anticancer Drug Screen. Data for tumor model L1210 Leukemia (intraperitoneal) in CD2F1 (CDF1) mice
Settings: higher = longer survival
Procedure, shortened: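 Each value reflects a quotient of treated over vehicle control outcomes in mice with a transplanted tumor.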

[1] = endpoint: mean survival time, dose: 100.0 mg/kg/injection, schedule: Q01DX001 (ip), vehicle: saline
[2] = endpoint: mean survival time, dose: 200.0 mg/kg/injection, schedule: Q01DX001 (ip), vehicle: saline
[3] = endpoint: mean survival time, dose: 400.0 mg/kg/injection, schedule: Q01DX001 (ip), vehicle: saline
[4] = endpoint: mean survival time, dose: 100.0 mg/kg/injection, schedule: Q04DX003 (ip), vehicle: saline with Tween-80
[5] = endpoint: mean survival time, dose: 200.0 mg/kg/injection, schedule: Q04DX003 (ip), vehicle: saline with Tween-80
[6] = endpoint: mean survival time, dose: 400.0 mg/kg/injection, schedule: Q04DX003 (ip), vehicle: saline with Tween-80
[7] = endpoint: mean survival time, dose: 12.5 mg/kg/injection, schedule: Q01DX009 (ip), vehicle: saline with Tween-80
[8] = endpoint: mean survival time, dose: 25.0 mg/kg/injection, schedule: Q01DX009 (ip), vehicle: saline with Tween-80
[9] = endpoint: mean survival time, dose: 50.0 mg/kg/injection, schedule: Q01DX009 (ip), vehicle: saline with Tween-80
[10] = endpoint: mean survival time, dose: 100.0 mg/kg/injection, schedule: Q04DX002 (ip), vehicle: saline with Tween-80
[11] = endpoint: mean survival time, dose: 200.0 mg/kg/injection, schedule: Q04DX002 (ip), vehicle: saline with Tween-80
[12] = endpoint: mean survival time, dose: 12.5 mg/kg/injection, schedule: Q01DX001 (ip), vehicle: saline with Tween-80
[13] = endpoint: mean survival time, dose: 100.0 mg/kg/injection, schedule: Q01DX009 (ip), vehicle: saline with Tween-80
[14] = endpoint: mean survival time, dose: 200.0 mg/kg/injection, schedule: Q01DX009 (ip), vehicle: saline with Tween-80
[15] = endpoint: mean survival time, dose: 75.0 mg/kg/injection, schedule: Q01DX001 (ip), vehicle: saline
[16] = endpoint: mean survival time, dose: 150.0 mg/kg/injection, schedule: Q01DX001 (ip), vehicle: saline
[17] = endpoint: mean survival time, dose: 300.0 mg/kg/injection, schedule: Q01DX001 (ip), vehicle: saline
[18] = endpoint: mean survival time, dose: 400.0 mg/kg/injection, schedule: Q01DX009 (ip), vehicle: saline with Tween-80

Measured: T/C

O=C(Nc1cccc(O)c1)C(Cl)=C(Cl)Cl
inactive: endpoint: median survival time, dose: 1.12 mg/kg/injection, schedule: Q01DX005 (ip), vehicle: DMSO 100 % of control | endpoint: median survival time, dose: 1.19 mg/kg/injection, schedule: Q01DX005 (ip), vehicle: DMSO 101 % of control | endpoint: median survival time, dose: 1.87 mg/kg/injection, schedule: Q01DX005 (ip), vehicle: DMSO 100 % of control and 102 % of control | endpoint: median survival time, dose: 3.12 mg/kg/injection, schedule: Q01DX005 (ip), vehicle: DMSO 113 % of control and 98 % of control | endpoint: median survival time, dose: 5.19 mg/kg/injection, schedule: Q01DX005 (ip), vehicle: DMSO 104 % of control | endpoint: median survival time, dose: 5.2 mg/kg/injection, schedule: Q01DX005 (ip), vehicle: DMSO 108 % of control | endpoint: median survival time, dose: 6.25 mg/kg/injection, schedule: Q01DX005 (ip), vehicle: other 120 % of control | endpoint: median survival time, dose: 8.66 mg/kg/injection, schedule: Q01DX005 (ip), vehicle: DMSO 102 % of control | endpoint: median survival time, dose: 8.67 mg/kg/injection, schedule: Q01DX005 (ip), vehicle: DMSO 114 % of control | endpoint: median survival time, dose: 12.5 mg/kg/injection, schedule: Q01DX005 (ip), vehicle: other 118 % of control | endpoint: median survival time, dose: 25.0 mg/kg/injection, schedule: Q01DX005 (ip), vehicle: other 93 % of control

CC(=O)Nc1cccc([N+](=O)[O-])c1
inactive: endpoint: mean survival time, dose: 100.0 mg/kg/injection, schedule: Q04DX003 (ip), vehicle: Klucel (hydroxypropylcellulose) (HPC) 94 % of control | endpoint: mean survival time, dose: 200.0 mg/kg/injection, schedule: Q04DX003 (ip), vehicle: Klucel (hydroxypropylcellulose) (HPC) 97 % of control

COc1ccc(/C=C2/N=C(C)OC2=O)cc1OC(C)=O
inactive: [1] 92 % of control | [2] 93 % of control | [3] 96 % of control

O=CNc1ccc(C(=O)O)c(O)c1
inactive: [1] 95 % of control | endpoint: mean survival time, dose: 100.0 mg/kg/injection, schedule: Q01DX009 (ip), vehicle: saline 94 % of control and 95 % of control | endpoint: mean survival time, dose: 100.0 mg/kg/injection, schedule: Q04DX002 (ip), vehicle: saline 97 % of control | [4] 100 % of control | [2] 100 % of control and 106 % of control | endpoint: mean survival time, dose: 200.0 mg/kg/injection, schedule: Q01DX009 (ip), vehicle: saline 96 % of control and 98 % of control | endpoint: mean survival time, dose: 200.0 mg/kg/injection, schedule: Q04DX002 (ip), vehicle: saline 86 % of control and 94 % of control | [5] 98 % of control | [3] 88 % of control and 92 % of control | endpoint: mean survival time, dose: 400.0 mg/kg/injection, schedule: Q01DX009 (ip), vehicle: saline 100 % of control | endpoint: mean survival time, dose: 400.0 mg/kg/injection, schedule: Q04DX002 (ip), vehicle: saline 92 % of control and 108 % of control | [6] 98 % of control

CC(=O)Nc1c(N)ncnc1N
inactive: [4] 90 % of control | [5] 93 % of control | [6] 98 % of control

O=C(NNC(=S)Nc1cccc(C(F)(F)F)c1)c1ccncc1
inactive: [7] 91 % of control | [8] 93 % of control | [9] 88 % of control | [10] 98 % of control | [11] 105 % of control

Cc1c2ccccc2c(CSCCC(N)C(=O)O)c2ccccc12 (centres undefined)
inactive: [4] 96 % of control | [5] 93 % of control | [6] 90 % of control

CCCCCCCCCCCCSC(=S)S
inactive: [10] 87 % of control | [11] 91 % of control | endpoint: mean survival time, dose: 400.0 mg/kg/injection, schedule: Q04DX002 (ip), vehicle: saline with Tween-80 91 % of control

CCC[CH2][Sn]([CH2]CCC)([O]C(=O)COc1ccc(C(=O)c2ccccc2)c(O)c1)[O]C(=O)COc1ccc(C(=O)c2ccccc2)c(O)c1
inactive: endpoint: mean survival time, dose: 1.56 mg/kg/injection, schedule: Q01DX001 (ip), vehicle: saline with Tween-80 95 % of control | endpoint: mean survival time, dose: 3.13 mg/kg/injection, schedule: Q01DX001 (ip), vehicle: saline with Tween-80 98 % of control | endpoint: mean survival time, dose: 6.25 mg/kg/injection, schedule: Q01DX001 (ip), vehicle: saline with Tween-80 98 % of control | [12] 105 % of control

O=C(CBr)c1cccc(OC(=O)c2ccccc2)c1
inactive: [7] 100 % of control | endpoint: mean survival time, dose: 12.5 mg/kg/injection, schedule: Q04DX003 (ip), vehicle: saline with Tween-80 107 % of control | [8] 100 % of control | endpoint: mean survival time, dose: 25.0 mg/kg/injection, schedule: Q04DX003 (ip), vehicle: saline with Tween-80 102 % of control | endpoint: mean survival time, dose: 50.0 mg/kg/injection, schedule: Q04DX003 (ip), vehicle: saline with Tween-80 113 % of control

O=C1C=C(O)c2ccccc2C1=O.[Ag]
inactive: [12] 97 % of control | endpoint: mean survival time, dose: 25.0 mg/kg/injection, schedule: Q01DX001 (ip), vehicle: saline with Tween-80 93 % of control

COC(=O)c1ccccc1C=C(c1ccc([N+](=O)[O-])cc1)c1ccc([N+](=O)[O-])cc1
inactive: [13] 93 % of control | [4] 94 % of control | [14] 93 % of control | [5] 96 % of control | [6] 88 % of control

CC(C)(CI)CI
inactive: [4] 104 % of control | [5] 102 % of control | [6] 96 % of control

Cc1c[n+](Cc2ccccc2)ccn1
inactive: [15] 102 % of control | [16] 102 % of control | [17] 98 % of control

COc1cc2ccc3c4cc5c(cc4c[n+](C)c3c2cc1OC)OCO5
inactive: endpoint: mean survival time, dose: 10.0 mg/kg/injection, schedule: Q01DX009 (ip), vehicle: Klucel (hydroxypropylcellulose) (HPC) 119 % of control | endpoint: mean survival time, dose: 20.0 mg/kg/injection, schedule: Q01DX009 (ip), vehicle: Klucel (hydroxypropylcellulose) (HPC) 119 % of control | endpoint: mean survival time, dose: 40.0 mg/kg/injection, schedule: Q01DX009 (ip), vehicle: Klucel (hydroxypropylcellulose) (HPC) 121 % of control | endpoint: mean survival time, dose: 80.0 mg/kg/injection, schedule: Q01DX009 (ip), vehicle: Klucel (hydroxypropylcellulose) (HPC) 115 % of control | endpoint: mean survival time, dose: 160.0 mg/kg/injection, schedule: Q01DX009 (ip), vehicle: Klucel (hydroxypropylcellulose) (HPC) 97 % of control

O=C(OCCO)c1oc2ccccc2c1OCCO
inactive: endpoint: mean survival time, dose: 100.0 mg/kg/injection, schedule: Q01DX001 (ip), vehicle: saline with Tween-80 98 % of control | endpoint: mean survival time, dose: 200.0 mg/kg/injection, schedule: Q01DX001 (ip), vehicle: saline with Tween-80 98 % of control | endpoint: mean survival time, dose: 400.0 mg/kg/injection, schedule: Q01DX001 (ip), vehicle: saline with Tween-80 102 % of control

O=C(CNC(=O)Nc1cccc([N+](=O)[O-])c1)N/N=C/c1ccncc1
inactive: [9] 89 % of control | [13] 89 % of control | [14] 93 % of control

CN(N)C1CCCCC1
inactive: [15] 100 % of control | [16] 100 % of control

O=NN(CCCl)C(=O)Nc1cc2c3ccccc3ccc2c2ccccc12
inactive: endpoint: mean survival time, dose: 177.0 mg/kg/injection, schedule: Q01DX009 (ip), vehicle: saline with Tween-80 102 % of control | endpoint: mean survival time, dose: 265.0 mg/kg/injection, schedule: Q01DX009 (ip), vehicle: saline with Tween-80 98 % of control | [18] 102 % of control | endpoint: mean survival time, dose: 600.0 mg/kg/injection, schedule: Q01DX009 (ip), vehicle: saline with Tween-80 89 % of control

O=C(/C=C/c1ccncc1)c1ccccc1
inactive: [13] 92 % of control | [4] 89 % of control | [14] 89 % of control | [5] 89 % of control | [18] 91 % of control | [6] 95 % of control

COc1ccc(S(=O)(=O)NCCN(C)C)cc1NC(C)=O
inactive: [1] 90 % of control | [2] 93 % of control | [3] 100 % of control

O=C(Nc1cccc(Cl)c1)c1c[nH]c2cc(Cl)ccc2c1=O
inactive: [13] 101 % of control | [4] 96 % of control | [14] 95 % of control | [5] 93 % of control | [18] 101 % of control | [6] 93 % of control

Cc1cc2sc(C)[n+](CCCOS(=O)(=O)[O-])c2cc1C
inactive: [15] 104 % of control | [16] 104 % of control | [17] 96 % of control

CC(=O)Nc1nc2ncc(/C=C/c3ccccc3)nc2c(=O)[nH]1
inactive: endpoint: mean survival time, dose: 75.0 mg/kg/injection, schedule: Q01DX001 (ip), vehicle: other 100 % of control | endpoint: mean survival time, dose: 150.0 mg/kg/injection, schedule: Q01DX001 (ip), vehicle: other 97 % of control

O=C1C=CC(=O)c2c1ccc1ccccc21
inactive: endpoint: mean survival time, dose: 12.5 mg/kg/injection, schedule: Q01DX001 (ip), vehicle: acetone 104 % of control | endpoint: mean survival time, dose: 25.0 mg/kg/injection, schedule: Q01DX001 (ip), vehicle: acetone 105 % of control | endpoint: mean survival time, dose: 50.0 mg/kg/injection, schedule: Q01DX001 (ip), vehicle: acetone 105 % of control
